For data set [1] the following is noted: intravenous administration (3 mg/kg); cited from earlier work.
The conditions of data set [2]: cited from earlier work.
For data set [3] the following is noted: cited from earlier work. The source holds these as a separate data set.
Data set [4] is described as follows: Stabilization experiments with LECIGON, accelerated stability study at 25° C. for 12 days. Format: physicochemical. Particulars: all combinations of Table 6. As to the method:
HPLC—Agilent 1100 with DAD detector and cooled injector; OpenLAB CDS Chemstation C.01.05 (Agilent Technologies Inc., Santa Clara, Calif., U.S.A.).
As reference product, LECIGON™ having no stabilizing modification was used.
The following stabilizing modifications of the LECIGON™ composition were tested, the corresponding experimental compositions (“Exp.”) in Table 4 above being given within parentheses:
• a) 0.1% ascorbic acid (Exp. 5) • b) 0.5% citrate buffer (Exp. 12) • c) 0.5% citric acid (Exp. 4) 3. Removal of oxygen • nitrogen gas (Exp. 15) 4. Removal of metal ions • 0.05% EDTA (Exp. 3) 5. Combination of reduced pH and anti-oxidant (Exp. 13) 6. Combination of anti-oxidant and removal of oxygen • a) 0.1% ascorbic acid and 0.05% EDTA (Exp. 14) • b) 0.5% citric acid and 0.05% EDTA (Exp. 10) 7. Enclosure in an aluminium bag (Exp. 8).
The results are ranked with respect to reduction of hydrazine (DHPA, RRT 7.1). […] Levodopa was stable in all combinations and is therefore not included in the table. In the table, “Carb” is carbidopa, and “Ent” is entacapone.

Consider `Cc1ccc(C(=O)c2cc(O)c(O)c([N+](=O)[O-])c2)cc1` [Tolcapone, (3,4-Dihydroxy-5-nitrophenyl)(4-methylphenyl)methanone], for which the “elimination half-life (t1/2β)” value in data set [1] is reported as 2.9 h.
Take `C[C@@](Cc1ccc(O)c(O)c1)(NN)C(=O)O` [Carbidopa, (−)-L-α-hydrazino-α-methyl-β-(3,4-dihydroxybenzene) propanoic acid monohydrate]: the solubility in water entry in data set [2] was “slightly soluble in water”.
As for `N[C@@H](Cc1ccc(O)c(O)c1)C(=O)O` [Levodopa, (−)-L-α-amino-β-(3,4-dihydroxybenzene) propanoic acid], the “metabolized to dopamine before levodopa reaches the brain” value in data set [3] (intake of levodopa alone) is “more than 90%”. Besides, the bioavailability in data set [3] (levodopa via DUODOPA gel, same as in a tablet) was 81-98%. In addition, in data set [4], the “Stability of levodopa in the gel combinations” value is “stable”. Moreover, the solubility in water result in data set [2] is reported as “slightly soluble in water”.

(Values after patent US10555922B2, “Method of treating a dopamine related disorder in a subject by administering levodopa, in combination with a dopamine decarboxylase inhibitor and a catechol-o-methyltransferase inhibitor” (priority 2015, dated 2020).)
